{
  "source": "patent US9320773B2",
  "about": "“Compounds and therapeutic applications related to inhibition of dendritic cell immunoreceptor (DCIR) activity and signaling events” (priority 2010, dated 2016)",
  "key": {"[1]": {"tested_on": "human primary CD4+ T cells", "assay": "Apoptosis of HIV-1-infected and bystander CD4+ T cells (FITC-VAD-FMK staining)", "assay_type": "cell-based", "conditions": "NL4-3-IRES-HSA infected CD4+ T cells; data not shown", "text": "The HIV-1-mediated induction of apoptosis in both infected and bystander CD4^+ T cells is a well-described phenomenon. The peak of apoptosis is observed usually after 2 to 3 days, the same time frame in which we detected the HIV-1-dependent induction of DCIR. Therefore, we next assessed whether there might be a connection between the virus-induced DCIR expression and apoptosis. We initially assessed the ability of NL4-3-IRES-HSA reporter virus to drive apoptosis in CD4^+ T cells using FITC-VAD-FMK staining. This fluorochrome-labeled pan-caspase inhibitor is a specific and convenient-to-use marker of apoptotic cells, which can identify very early events of apoptosis associated with caspase activation (i.e. pre-apoptotic cells). Our studies indicate that NL4-3-IRES-HSA virions can potently mediate apoptosis in human primary CD4^+ T cells (data not shown). […] To establish a link between DCIR expression and apoptosis following HIV-1 infection, we carried out a series of investigations with the broad-spectrum caspase inhibitor Z-VAD-FMK [94]."}, "[2]": {"tested_on": "DCIR expression in CD4+ T cells", "assay": "HIV-1-mediated induction of DCIR expression in CD4+ T cells (flow cytometry)", "assay_type": "cell-based, human", "conditions": "cells pre-treated before virus infection, 3 days; result in words", "description": "Mitogen-activated CD4^+ T cells (1×10^6) were first either left untreated or treated for 1 h with the caspase inhibitor Z-VAD-FMK (50 nM), after which HIV-1 was added (100 ng of p24), where indicated. DCIR expression was monitored 3 days later by flow cytometry. Data shown represent the means±SD of triplicate samples from three independent experiments.\nCells (1×10^6) were first either left untreated or treated for 1 h with NAC, after which HIV-1 (100 ng of p24) was added. DCIR expression was monitored 3 days later by flow cytometry. Expression of DCIR is shown as a dotted line, whereas the continuous line represents staining obtained with an isotype-matched irrelevant control Ab. Data shown correspond to a single experiment representative of 3 independent experiments.\nCell surface expression of DCIR was monitored by flow cytometric analysis (Epics ELITE ESP, Coulter Electronics, Burlington, Canada). Cells (1×10^6 cells) were incubated for 30 min with a pool of human serum to block the unspecific binding. After washing, the cells were incubated with PE-labeled anti-DCIR (0.25 μg) for 45 min at 4° C. and then washed twice with PBS and 0.5% BSA. Non-specific staining was determined by using an isotype-matched irrelevant control antibody. After two final washes with PBS, cells were fixed in 2% paraformaldehyde for 30 min and analyzed."}, "CD4+ T cells": {"tested_on": "CD4+ T cells", "assay": "Cell toxicity / viability of CD4+ T cells", "assay_type": "cell-based, human", "conditions": "mitogen-stimulated CD4+ T cells; data not shown"}, "[3]": {"tested_on": "HIV-1 NL4-3 in CD4+ T cells", "description": "Target CD4^+ T cells (1×10^6) were treated for 16 h with H2O2 (30 μM) to induce surface expression of DCIR. FIG. 17A: Cells were next exposed to NL4-3 (100 ng of p24) for 1 h at 37° C., extensively washed to remove unabsorbed virons before assessing the p24 content. FIG. 17B: Cells were first incubated with NL4-3 (100 ng of p24) for 2 h at 37° C., washed extensively to remove input virus and cultured in complete culture RPMI-1640 medium supplemented with rhIL-2 for the indicated number of days. Cell-free supernatants were collected and assayed for the p24 content. FIG. 17C: Cells were exposed to NL4-3 (100 ng of p24) for 2 h at 37° C., next washed extensively to remove input virus, and finally co-cultured with autologous CD4^+ T cells in complete culture RPMI-1640 medium supplemented with rhIL-2 for the indicated number of days. Cell-free supernatants were collected and assayed for the p24 content. Virus production at day 2 is depicted in the small inserts (FIGS. 17B and C). FIG. 17D: Cells were exposed to NL4-3 (100 ng of p24) for 2 h at 37° C., washed extensively to remove input virus, and maintained in complete culture medium supplemented with rhIL-2 for 3 days. Next, DCIR-negative and -positive cells (used as transmitter cells) were isolated with magnetic beads and co-cultured with uninfected CD4^+ T cells (used as recipient cells). […]"}, "DC-SIGN": {"tested_on": "DC-SIGN", "conditions": "induction of apoptosis by H2O2; data not shown"}, "[4]": {"tested_on": "DCIR expression in CD4+ T cells", "assay": "DCIR expression in CD4+ T cells after H2O2 or other apoptosis inducers (flow cytometry)", "assay_type": "cell-based, human", "description": "Next, DCIR expression was assessed by flow cytometry. Data shown represent the ratio of DCIR expression over basal expression. The ratio is calculated from the means±SD of triplicate samples from three independent experiments. […] FIG. 16A: […] Expression of DCIR is shown as a dotted line, whereas the continuous line represents staining obtained with an isotype-matched irrelevant control Ab. Data shown correspond to a single experiment representative of 3 independent experiments. FIG. 16B: […] Thereafter, DCIR surface expression and caspase activation were monitored by flow cytometric analysis using a double-staining method consisting of FITC-VAD-FMK followed by the R-PE-conjugated anti-DCIR. Data shown correspond to a single experiment representative of 4 independent experiments. Cell surface expression of DCIR was monitored by flow cytometric analysis (Epics ELITE ESP, Coulter Electronics, Burlington, Canada). […] After washing, the cells were incubated with PE-labeled anti-DCIR (0.25 μg) for 45 min at 4° C. and then washed twice with PBS and 0.5% BSA. Non-specific staining was determined by using an isotype-matched irrelevant control antibody. After two final washes with PBS, cells were fixed in 2% paraformaldehyde for 30 min and analyzed."}, "CD4": {"tested_on": "CD4", "conditions": "induction of apoptosis by H2O2; data not shown"}, "[5]": {"tested_on": "HIV-1 NL4-3 in Raji-CD4-DCIR cells", "assay": "HIV-1 binding/entry assay in Raji-CD4-DCIR cells (cell-associated p24 ELISA)", "assay_type": "cell-based", "conditions": "cells pretreated with inhibitor 10 min, pulsed with NL4-3 60 min; result in words", "description": "(§1) FIG. 2A: Raji-CD4 and Raji-CD4-DCIR cells were either left untreated or treated with SSG (100 μg/ml) for 10 min at 37° C. Thereafter, cells were pulsed with NL4-3 for 60 min. After three washes with PBS to remove non-adsorbed virus, cell-associated virus was quantified by measuring the p24 content. Data shown correspond to the means±SD of triplicate samples from three combined independent experiments. The asterisk denotes statistically significant data (*, P<0.05; **, P<0.01). FIG. 2B: Cells were either left untransfected or transfected with a sense or antisense oligonucleotide specific for the signalling protein of interest. Next, cells were pulsed with NL4-3 for 60 min. After three washes with PBS to eliminate unbound virus, cell-associated virus was quantified by measuring the p24 content. Data shown correspond to the means±SD of triplicate samples from three combined independent experiments. The asterisk denotes statistically significant data (*, P<0.05; **, P<0.01). After gene silencing, the diminution of the targeted protein was verified by western blots, provided as an insert for each graph.\nWhere indicated, parental Raji-CD4 cells (DCIR-negative) or Raji-CD4-DCIR transfectants (1×10^6) were pretreated with the indicated amount of a pharmacological inhibitor for 10 min or transfected with sense or antisense oligonucleotides as described below. Cells were then pulsed with NL4-3 (100 ng of p24) for 60 min at 37° C. Next the virus-cell mixture was washed 3 times with PBS to remove unbound virus and resuspended in PBS containing 1% BSA. To assess binding/entry, the p24 content was determined by our in-house ELISA assay^33.\nRaji-CD4 and Raji-CD4-DCIR cells (1×10^6 cells) were washed with OptiMEM (Invitrogen Life Technologies) without serum and antibiotics. The phosphorothioate oligodeoxynucleotides (Listed in Table 1) (Invitrogen Life Technologies) were transfected at a final concentration of 10 μM/well^35 using Oligofectamine according to the manufacturer's instructions (Invitrogen Life Technologies). Silencing efficiency was monitored by western blot analysis."}, "[6]": {"tested_on": "HIV-1 NL4-3 in Raji-CD4 cells", "assay": "HIV-1 binding/entry assay in parental Raji-CD4 cells (DCIR-negative)", "assay_type": "cell-based", "conditions": "pretreated with inhibitor 10 min, result in words", "description": "as §1, with “After gene silencing, the diminution of the targeted protein was verified by western blots, provided as an insert for each graph.” left out\nWhere indicated, parental Raji-CD4 cells (DCIR-negative) or Raji-CD4-DCIR transfectants (1×10^6) were pretreated with the indicated amount of a pharmacological inhibitor for 10 min or transfected with sense or antisense oligonucleotides as described below. […] To assess binding/entry, the p24 content was determined by our in-house ELISA assay^33."}},
  "data": [
    {"smiles": "O=C1Nc2ccc(Cl)cc2[C@@](C#CC2CC2)(C(F)(F)F)O1", "note": "[EFV, efavirenz]", "values": [
      {"measurement": "percentages of apoptotic cells in virus-infected and bystander cells", "setting": "[1]", "value": "significantly reduced"},
      {"measurement": "HIV-1-mediated DCIR expression", "setting": "[2]", "value": "reduced significantly"}
    ]},
    {"smiles": "OO", "note": "[H2O2, Hydrogen peroxide]", "values": [
      {"measurement": "doses at which cell viability was reduced", "setting": "CD4+ T cells", "value": "≥ 45", "unit": "µM"},
      {"measurement": "virus production", "setting": "[3]", "value": "statistically significant increase"},
      {"measurement": "virus binding and entry, p24", "setting": "[3]; CD4+ T cells exposed to H2O2 (30 μM, 16 h), 3.8±0.8 without H2O2", "value": "12.5±1.8 ng/ml of p24"},
      {"measurement": "surface expression of DC-SIGN", "setting": "DC-SIGN", "value": "not modulated"},
      {"measurement": "DCIR expression", "setting": "[4]; CD4+ T cells treated with inducer, H2O2 20 to 60 μM, result in words", "value": "dose-dependent increased"},
      {"measurement": "DCIR expression in activated CD4+ T cells", "setting": "[4]; H2O2-treated cells (30 μM, 16 h), n=3", "value": "21.4±3.4", "unit": "%"},
      {"measurement": "apoptotic cells also positive for DCIR", "setting": "[4]; H2O2 treatment, FITC-VAD-FMK and anti-DCIR double staining, n=3", "value": "12.2±3.2", "unit": "%"},
      {"measurement": "surface expression of CD4", "setting": "CD4", "value": "not modulated"}
    ]},
    {"smiles": "O.O.O.O.O.O.O.O.O.O=C([O-])[C@@H]1[O][Sb]2([O-])([O][Sb]34([OH])[O][C@H]([C@H](O)CO)[C@H]([O]3)[C@H](C(=O)[O-])[O]4)[O][C@H]([C@H](O)CO)[C@@H]1[O]2.[Na+].[Na+].[Na+]", "note": "[SSG, sodium stibogluconate]", "values": [
      {"measurement": "HIV-1 binding/entry", "setting": "[5]", "value": "decreases"},
      {"measurement": "HIV-1 binding/entry", "setting": "[6]", "value": "no similar effect"}
    ]}
  ]
}
